Experimental data as given in ChEMBL document CHEMBL1777786, “Synthesis of cholestane saponins as mimics of OSW-1 and their cytotoxic activities” (Bioorg Med Chem Lett, 2011).

Assays:
Assay type in all cases: functional, cell-based
HCT-8 = assay: Cytotoxicity against human HCT8 cells after 72 hrs by MTT assay; conditions: HCT-8, 72 h
Bel-7402 = assay: Cytotoxicity against human Bel7402 cells after 72 hrs by MTT assay; conditions: Bel-7402, 72 h
BGC-823 = assay: Cytotoxicity against human BGC823 cells after 72 hrs by MTT assay; conditions: BGC-823, 72 h
A2780 = assay: Cytotoxicity against human A2780 cells after 72 hrs by MTT assay; conditions: A2780, 72 h
A549 = assay: Cytotoxicity against human A549 cells after 72 hrs by MTT assay; conditions: A549, 72 h

Compound | IC50 (HCT-8) [nM] | IC50 (Bel-7402) [nM] | IC50 (BGC-823) [nM] | IC50 (A2780) [nM] | IC50 (A549) [nM]
COc1ccc(C(=O)O[C@H]2[C@H](O[C@@H]3[C@@H](OC(C)=O)[C@H](O[C@H]4C[C@H]5[C@@H]6CC=C7C[C@@H](O)CC[C@]7(C)[C@H]6CC[C@]5(C)[C@H]4[C@H](C)CCC[C@@H](C)CO)OC[C@@H]3O)OC[C@@H](O)[C@@H]2O)cc1 | 70 | 23 | 2 | 6 | 9.3
COc1ccc(C(=O)O[C@H]2[C@H](O[C@@H]3[C@@H](OC(C)=O)[C@H](O[C@H]4C=C5C[C@@H](O)CC[C@]5(C)[C@H]5CC[C@]6(C)[C@@H]([C@H](C)CCC[C@@H](C)CO)CC[C@H]6[C@H]45)OC[C@@H]3O)OC[C@@H](O)[C@@H]2O)cc1 | > 10000 | > 10000 | > 10000 | > 10000 | > 10000
COc1ccc(C(=O)O[C@H]2[C@H](O[C@@H]3[C@@H](OC(C)=O)[C@H](O[C@H]4C=C5C[C@@H](O)CC[C@]5(C)[C@H]5CC[C@]6(C)[C@@H]([C@H](C)CCC[C@@H](C)CO)[C@@H](O)C[C@H]6[C@H]45)OC[C@@H]3O)OC[C@@H](O)[C@@H]2O)cc1 | 75 | 50 | 78 | 1900 | 87
COc1ccc(C(=O)O[C@H]2[C@H](O[C@H]3CO[C@@H](O[C@H]4C[C@H]5[C@@H]6CC=C7C[C@@H](O)CC[C@]7(C)[C@H]6CC[C@]5(C)[C@H]4[C@H](C)CCC[C@@H](C)CO)[C@H](OC(C)=O)[C@H]3O)OC[C@@H](O)[C@@H]2O)cc1 | > 10000 | > 10000 | > 10000 | > 10000 | > 10000
COc1ccc(C(=O)O[C@H]2[C@H](O[C@H]3CO[C@@H](O[C@H]4C=C5C[C@@H](O)CC[C@]5(C)[C@H]5CC[C@]6(C)[C@@H]([C@H](C)CCC[C@@H](C)CO)CC[C@H]6[C@H]45)[C@H](OC(C)=O)[C@H]3O)OC[C@@H](O)[C@@H]2O)cc1 | > 10000 | > 10000 | > 10000 | > 10000 | > 10000
COc1ccc(C(=O)O[C@H]2[C@H](O[C@H]3CO[C@@H](O[C@H]4C=C5C[C@@H](O)CC[C@]5(C)[C@H]5CC[C@]6(C)[C@@H]([C@H](C)CCC[C@@H](C)CO)[C@@H](O)C[C@H]6[C@H]45)[C@H](OC(C)=O)[C@H]3O)OC[C@@H](O)[C@@H]2O)cc1 | > 10000 | > 10000 | > 10000 | > 10000 | > 10000
CC(=O)O[C@H]1C(=O)[C@@]2(C)[C@H]([C@H](OC(=O)c3ccccc3)[C@]3(O)C[C@H](OC(=O)[C@H](O)[C@@H](NC(=O)c4ccccc4)c4ccccc4)C(C)=C1C3(C)C)[C@]1(OC(C)=O)CO[C@@H]1C[C@@H]2O [PACLITAXEL] |  | 6 | < 1 | < 1 | 
